Results as given in patent US12257214B2, “Compositions and methods comprising deoxy-pentitols” (The Charlotte Mecklenburg Hospital Authority, priority 2021, dated 2025).

Tested on: alpha dystroglycan (α-DG)
Test: Glycosylation of alpha dystroglycan
Format: cell-based
Description: This invention applies a synthetic molecule, 2-deoxyribitol, to treat cancer for growth inhibition and cancer cell killing. Naturally-occurring ribitol is a metabolite, but its metabolic pathway has not been clearly defined. Recently, ribitol has been identified as a precursor of CDP-ribitol, the substrate used for the synthesis of sugar modification of a membrane protein, alpha dystroglycan (α-DG). […] The loss or reduced expression of glycosylation of α-DG has been linked to cancer progression and metastasis in breast and other cancers in clinics, and enhanced glycosylation of α-DG may inhibit cancer cell growth and tumorigenicity. This study screened several different pentose and pentitol molecules including ribose, 2-deoxyribose, ribulose, 2-deoxyribitol, xylose, and xylitol to evaluate these sugar molecules for the effects of enhancing glycosylation of α-DG and inhibiting cancer cell growth/tumorigenicity.

## OCC[C@H](O)[C@H](O)CO [2-deoxyribitol]
  glycosylation of α-DG: did not enhance glycosylation of α-DG
